Test results as given in ChEMBL document CHEMBL1151757, “Synthesis, radiosynthesis, and biological evaluation of fluorine-18-labeled 2beta-carbo(fluoroalkoxy)-3beta-(3'-((Z)-2-haloethenyl)phenyl)nortropanes: candidate radioligands for in vivo imaging of the serotonin transporter with positron emission tomography” (J Med Chem, 2008).

Tested on: Thalamus
Assay: Drug uptake in anesthetized cynomolgus monkey brain thalamus after 27.5 mins postinjection
Assay type: ADME, organism-based, Macaca fascicularis
Design: unit not given here
Conditions: in vivo

SMILES	Drug uptake
O=C(OCC[18F])C1C2CCC(CC1c1ccc(/C=C\I)cc1)N2 (stereo not drawn)	3.06

Tested on: Putamen
Assay: Drug uptake in anesthetized cynomolgus monkey brain putamen after 75 mins postinjection
Assay type: ADME, organism-based, Macaca fascicularis
Design: unit not given here
Conditions: in vivo, 1.25 h

SMILES	Drug uptake
O=C(OCC[18F])C1C2CCC(CC1c1ccc(/C=C\I)cc1)N2 (stereo not drawn)	4.28

Tested on: Midbrain
Assay: Drug uptake in anesthetized cynomolgus monkey brain midbrain after 115 mins postinjection
Assay type: ADME, organism-based, Macaca fascicularis
Design: unit not given here
Conditions: in vivo

SMILES	Drug uptake
O=C(OCC[18F])C1C2CCC(CC1c1ccc(/C=C\I)cc1)N2 (stereo not drawn)	4.5

Tested on: Medulla
Assay: Drug uptake in anesthetized cynomolgus monkey brain medulla after 135 mins postinjection
Assay type: ADME, organism-based, Macaca fascicularis
Conditions: in vivo, 2.25 h

SMILES	Drug uptake
O=C(OCC[18F])C1C2CCC(CC1c1ccc(/C=C\I)cc1)N2 (stereo not drawn)	3.69

Tested on: not listed separately
Assay: Ratio of drug uptake in caudate to cerebellum in anesthetized cynomolgus monkey after 9.5 mins postinjection
Assay type: ADME, organism-based, Macaca fascicularis
Conditions: in vivo

SMILES	Ratio
O=C(OCC[18F])C1C2CCC(CC1c1ccc(/C=C\I)cc1)N2 (stereo not drawn)	0.7

Tested on: Pons
Assay: Drug uptake in anesthetized cynomolgus monkey brain pons after 15.5 mins postinjection
Assay type: ADME, organism-based, Macaca fascicularis
Conditions: in vivo

SMILES	Drug uptake
O=C(OCC[18F])C1C2CCC(CC1c1ccc(/C=C\I)cc1)N2 (stereo not drawn)	2.14

Tested on: Medulla
Assay: Drug uptake in anesthetized cynomolgus monkey brain medulla after 155 mins postinjection
Assay type: ADME, organism-based, Macaca fascicularis
Conditions: in vivo

SMILES	Drug uptake
O=C(OCC[18F])C1C2CCC(CC1c1ccc(/C=C\I)cc1)N2 (stereo not drawn)	3.73

Tested on: Caudate
Assay: Drug uptake in anesthetized cynomolgus monkey brain caudate after 35 mins postinjection
Assay type: ADME, organism-based, Macaca fascicularis, Caudate nucleus
Conditions: in vivo

SMILES	Drug uptake
O=C(OCC[18F])C1C2CCC(CC1c1ccc(/C=C\I)cc1)N2 (stereo not drawn)	2.33

Tested on: not listed separately
Assay: Ratio of drug uptake in midbrain to cerebellum in anesthetized cynomolgus monkey after 215 mins postinjection
Assay type: ADME, organism-based, Macaca fascicularis
Conditions: in vivo

SMILES	Ratio
O=C(OCC[18F])C1C2CCC(CC1c1ccc(/C=C\I)cc1)N2 (stereo not drawn)	3.9

Tested on: Putamen
Assay: Drug uptake in anesthetized cynomolgus monkey brain putamen after 45 mins postinjection
Assay type: ADME, organism-based, Macaca fascicularis
Design: unit not given here
Conditions: in vivo, 0.75 h

SMILES	Drug uptake
O=C(OCC[18F])C1C2CCC(CC1c1ccc(/C=C\I)cc1)N2 (stereo not drawn)	3.8

Tested on: Midbrain
Assay: Drug uptake in anesthetized cynomolgus monkey brain midbrain after 165 mins postinjection
Assay type: ADME, organism-based, Macaca fascicularis
Conditions: in vivo, 2.75 h

SMILES	Drug uptake
O=C(OCC[18F])C1C2CCC(CC1c1ccc(/C=C\I)cc1)N2 (stereo not drawn)	4.6

Tested on: Caudate
Assay: Drug uptake in anesthetized cynomolgus monkey brain caudate after 175 mins postinjection
Assay type: ADME, organism-based, Macaca fascicularis, Caudate nucleus
Conditions: in vivo

SMILES	Drug uptake
O=C(OCC[18F])C1C2CCC(CC1c1ccc(/C=C\I)cc1)N2 (stereo not drawn)	3

Tested on: Caudate
Assay: Drug uptake in anesthetized cynomolgus monkey brain caudate after 3.5 mins postinjection
Assay type: ADME, organism-based, Macaca fascicularis, Caudate nucleus
Conditions: in vivo

SMILES	Drug uptake
O=C(OCC[18F])C1C2CCC(CC1c1ccc(/C=C\I)cc1)N2 (stereo not drawn)	0.56

Tested on: not listed separately
Assay: Drug uptake in anesthetized cynomolgus monkey brain cerebellum after 205 mins postinjection
Assay type: ADME, organism-based, Macaca fascicularis
Conditions: in vivo

SMILES	Drug uptake
O=C(OCC[18F])C1C2CCC(CC1c1ccc(/C=C\I)cc1)N2 (stereo not drawn)	1.22

Tested on: Medulla
Assay: Drug uptake in anesthetized cynomolgus monkey brain medulla after 205 mins postinjection
Assay type: ADME, organism-based, Macaca fascicularis
Conditions: in vivo

SMILES	Drug uptake
O=C(OCC[18F])C1C2CCC(CC1c1ccc(/C=C\I)cc1)N2 (stereo not drawn)	3.32

Tested on: Medulla
Assay: Drug uptake in anesthetized cynomolgus monkey brain medulla after 105 mins postinjection
Assay type: ADME, organism-based, Macaca fascicularis
Conditions: in vivo, 1.75 h

SMILES	Drug uptake
O=C(OCC[18F])C1C2CCC(CC1c1ccc(/C=C\I)cc1)N2 (stereo not drawn)	3.82

Tested on: Thalamus
Assay: Drug uptake in anesthetized cynomolgus monkey brain thalamus after 165 mins postinjection
Assay type: ADME, organism-based, Macaca fascicularis
Design: unit not given here
Conditions: in vivo, 2.75 h

SMILES	Drug uptake
O=C(OCC[18F])C1C2CCC(CC1c1ccc(/C=C\I)cc1)N2 (stereo not drawn)	3.88

Tested on: Pons
Assay: Drug uptake in anesthetized cynomolgus monkey brain pons after 9.5 mins postinjection
Assay type: ADME, organism-based, Macaca fascicularis
Conditions: in vivo

SMILES	Drug uptake
O=C(OCC[18F])C1C2CCC(CC1c1ccc(/C=C\I)cc1)N2 (stereo not drawn)	1.62

Tested on: not listed separately
Assay: Drug uptake in anesthetized cynomolgus monkey brain cerebellum after 6.5 mins postinjection
Assay type: ADME, organism-based, Macaca fascicularis
Conditions: in vivo

SMILES	Drug uptake
O=C(OCC[18F])C1C2CCC(CC1c1ccc(/C=C\I)cc1)N2 (stereo not drawn)	1.79

Tested on: not listed separately
Assay: Ratio of drug uptake in occipital lobe to cerebellum in anesthetized cynomolgus monkey after 125 mins postinjection
Assay type: ADME, organism-based, Macaca fascicularis
Conditions: in vivo

SMILES	Ratio
O=C(OCC[18F])C1C2CCC(CC1c1ccc(/C=C\I)cc1)N2 (stereo not drawn)	1.3

Tested on: not listed separately
Assay: Drug uptake in anesthetized cynomolgus monkey brain cerebellum after 1.5 mins postinjection
Assay type: ADME, organism-based, Macaca fascicularis
Conditions: in vivo, 0.025 h

SMILES	Drug uptake
O=C(OCC[18F])C1C2CCC(CC1c1ccc(/C=C\I)cc1)N2 (stereo not drawn)	0.1

Tested on: Medulla
Assay: Drug uptake in anesthetized cynomolgus monkey brain medulla after 18.5 mins postinjection
Assay type: ADME, organism-based, Macaca fascicularis
Conditions: in vivo

SMILES	Drug uptake
O=C(OCC[18F])C1C2CCC(CC1c1ccc(/C=C\I)cc1)N2 (stereo not drawn)	3.01

Tested on: not listed separately
Assay: Ratio of drug uptake in frontal lobe to cerebellum in anesthetized cynomolgus monkey after 195 mins postinjection
Assay type: ADME, organism-based, Macaca fascicularis
Conditions: in vivo, 3.25 h

SMILES	Ratio
O=C(OCC[18F])C1C2CCC(CC1c1ccc(/C=C\I)cc1)N2 (stereo not drawn)	1.3
